This passage reports Ki results from patent US6506766B1 (Abbott Laboratories, priority 1998, dated 2003).

The target of the first test is T1, human glucocorticoid receptor-α [GRX] isoform (Homo sapiens, UniProt P04150).
T1 construct: host or cells: insect SF21 cells (baculovirus)
T1 sequence (P04150 1-777): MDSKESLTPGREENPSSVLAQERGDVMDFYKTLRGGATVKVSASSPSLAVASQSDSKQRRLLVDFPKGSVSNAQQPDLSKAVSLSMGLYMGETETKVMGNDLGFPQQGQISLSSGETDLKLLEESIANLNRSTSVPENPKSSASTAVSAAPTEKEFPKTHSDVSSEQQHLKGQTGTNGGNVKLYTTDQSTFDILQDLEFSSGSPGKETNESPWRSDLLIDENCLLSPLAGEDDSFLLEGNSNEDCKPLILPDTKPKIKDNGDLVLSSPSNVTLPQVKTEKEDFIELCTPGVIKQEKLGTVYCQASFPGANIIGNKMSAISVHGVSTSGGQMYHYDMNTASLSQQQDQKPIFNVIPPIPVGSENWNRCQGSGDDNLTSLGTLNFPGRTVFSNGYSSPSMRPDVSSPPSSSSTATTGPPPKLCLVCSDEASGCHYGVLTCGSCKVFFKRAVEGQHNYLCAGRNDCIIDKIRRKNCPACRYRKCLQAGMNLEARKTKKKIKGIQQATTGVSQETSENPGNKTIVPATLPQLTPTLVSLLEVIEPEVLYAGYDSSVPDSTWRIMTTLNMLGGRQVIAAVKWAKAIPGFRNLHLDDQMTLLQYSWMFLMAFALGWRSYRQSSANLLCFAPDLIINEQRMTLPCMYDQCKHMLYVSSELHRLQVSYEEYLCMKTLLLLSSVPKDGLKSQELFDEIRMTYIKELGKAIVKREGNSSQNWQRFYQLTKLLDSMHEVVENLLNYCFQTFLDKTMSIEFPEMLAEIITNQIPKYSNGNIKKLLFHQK
The test is described as follows: Radioligand binding with human glucocorticoid receptor cytosol ([3H]-dexamethasone competition). Conditions: GRX cytosol expressed in insect SF21 cells, [3H]-Dex ~0.9 nM, 4° C. overnight; Ki by Cheng-Prusoff, KL ~[…]; read-out: Ki (nM) GR.
One may read the Ki as the equilibrium dissociation constant of an inhibitor or competing ligand from its target. `COc1c(O)ccc2c1-c1ccc3c(c1[C@@H](C1CCCC1)O2)C(C)=CC(C)(C)N3` [Example 265, (+)(R)5-Cyclopentyl-2,5-dihydro-9-hydroxy-10-methoxy-2,2,4-trimethyl-1H-[1]benzopyrano[3,4-f]quinoline]: the Ki was found to be 767 nM. For `C=CCC1Oc2cccc(OCc3ccccc3)c2-c2ccc3c(c21)C(C)=CC(C)(C)N3` (centres unmarked) [Example 447, 10-Benzyloxy-5-(2-propenyl)-2,5-dihydro-2,2,4-trimethyl-1H-[1]benzopyrano[3,4-f]quinoline], the Ki came to 7100 nM.

With `CCCC1Oc2ccc(O)c(Cl)c2-c2ccc3c(c21)C(C)=CC(C)(C)N3` (centres unmarked) [Example 411, 2,5-Dihydro-9-hydroxy-10-chloro-2,2,4-trimethyl-5-propyl-1H-[1]benzopyrano[3,4-f]quinoline], the Ki was determined as 0.68 nM.

As for `CCCC1Oc2cccc(OC)c2-c2ccc3c(c21)C(C)=CC(C)(C)N3` (centres unmarked) [Example 54, 2,5-Dihydro-10-methoxy-2,2,4-trimethyl-5-propyl-1H-[1]benzopyrano[3,4-f]quinoline], the Ki stood at 6.6 nM. Still for that read-out and setting: as for `C#CCC1Oc2cccc(OC)c2-c2ccc3c(c21)C(C)=CC(C)(C)N3` (centres unmarked) [Example 66, 2,5-Dihydro-10-methoxy-2,2,4-trimethyl-5-(2-propynyl)-1H-[1]benzopyrano[3,4-f]quinoline], the figure is 2.7 nM; as for `C=CCC1Oc2cccc(C=NO)c2-c2ccc3c(c21)C(C)=CC(C)(C)N3` (centres unmarked) [Example 446, 10-Carbaldehyde Oxime-5-(2-propenyl)-2,5-dihydro-2,2,4-trimethyl-1H-[1]benzopyrano[3,4-f]quinoline], 33 nM. On to `COc1cccc2c1-c1ccc3c(c1C(C=C(C)C)O2)C(C)=CC(C)(C)N3` (centres unmarked) [Example 324, 2,5-Dihydro-10-methoxy-5-(2-methylpropenyl)-2,2,4-trimethyl-1H-[1]benzopyrano[3,4-f]quinoline], for which the Ki amounted to 24 nM. The same measure, in the same setting: the result for `COc1cccc2c1-c1ccc3c(c1C(CN)O2)C(C)=CC(C)(C)N3` (centres unmarked) [Example 206A, 2,5-Dihydro-10-methoxy-5-(aminomethyl)-2,2,4-trimethyl-1H-[1]benzopyrano[3,4-f]quinoline] reads 4190 nM.

Still in this test, the particulars now being: Ki (nM) GR, GRX cytosol expressed in insect SF21 cells, [3H]-Dex ~0.9 nM, 4° C. overnight; Ki by Cheng-Prusoff, KL ~[…].
Take `COc1cccc2c1-c1ccc3c(c1[C@H]([C@@H]1C=CCCC1)O2)C(C)=CC(C)(C)N3` [Example 391, (−)(5S,3′S)2,5-Dihydro-10-methoxy-2,2,4-trimethyl-5-(cyclohexen-3-yl)-1H-[1]benzopyrano[3,4-f]quinoline]: affinity was put at a Ki of 1.7 nM.

Another test has as its target T2, human progesterone receptor-A [PRA] isoform (Homo sapiens, UniProt P06401).
T2 construct: host or cells: insect SF21 cells (baculovirus)
T2 sequence (P06401 1-769 isoform P06401-2): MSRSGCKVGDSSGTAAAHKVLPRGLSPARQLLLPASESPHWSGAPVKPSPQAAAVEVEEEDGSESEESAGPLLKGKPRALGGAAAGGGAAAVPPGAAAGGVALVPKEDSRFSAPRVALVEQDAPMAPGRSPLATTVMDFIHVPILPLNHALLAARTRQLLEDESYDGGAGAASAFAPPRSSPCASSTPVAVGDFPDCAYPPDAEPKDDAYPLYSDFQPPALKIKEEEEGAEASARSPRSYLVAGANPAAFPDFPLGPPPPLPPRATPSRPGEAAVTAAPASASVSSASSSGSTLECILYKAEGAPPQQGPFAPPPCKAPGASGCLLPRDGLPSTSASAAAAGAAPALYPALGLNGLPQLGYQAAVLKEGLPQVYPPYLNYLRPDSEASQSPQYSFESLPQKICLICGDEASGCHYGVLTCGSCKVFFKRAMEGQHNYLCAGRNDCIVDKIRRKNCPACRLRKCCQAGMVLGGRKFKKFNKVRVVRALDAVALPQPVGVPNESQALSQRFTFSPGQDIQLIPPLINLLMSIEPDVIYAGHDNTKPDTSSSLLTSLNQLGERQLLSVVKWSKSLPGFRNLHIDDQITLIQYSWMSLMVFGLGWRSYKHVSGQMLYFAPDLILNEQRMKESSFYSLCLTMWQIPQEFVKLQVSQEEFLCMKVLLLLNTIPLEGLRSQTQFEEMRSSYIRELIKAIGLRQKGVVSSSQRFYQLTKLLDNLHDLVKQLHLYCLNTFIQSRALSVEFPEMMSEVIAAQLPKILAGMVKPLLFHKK
The test is described as follows: Radioligand binding with human progesterone receptor cytosol ([3H]-progesterone competition). Conditions: PRA cytosol expressed in insect SF21 cells, [3H]Prog ~0.8 nM, 4° C. overnight; Ki by Cheng-Prusoff, KL ~4.5 nM; read-out: Ki (nM) PR.
With `COc1cccc2c1-c1ccc3c(c1[C@H]([C@@H]1C=CCC1)O2)C(C)=CC(C)(C)N3` [Example 390, (−)(5S,3′S)2,5-Dihydro-10-methoxy-2,2,4-trimethyl-5-(cyclopenten-3-yl)-1H-[1]benzopyrano[3,4-f]quinoline], the Ki stood at 520 nM.

Take `COc1cccc2c1-c1ccc3c(c1C(CCCO)O2)C(C)=CC(C)(C)N3` (centres unmarked) [Example 69, 2,5-Dihydro-10-methoxy-2,2,4-trimethyl-1H-[1]benzopyrano[3,4-f]quinoline-5-propanol]: the Ki was determined as 17300 nM. Turning to `C=CCNc1cccc(C2Oc3cccc(OC)c3-c3ccc4c(c32)C(C)=CC(C)(C)N4)c1` (centres unmarked) [Example 117, 3-(2,5-Dihydro-10-methoxy-2,2,4-trimethyl-1H-[1]benzopyrano[3,4-f]quinolin-5-yl)-N-(2-propenyl)benzenamine], the Ki is at least 10000 nM. In the case of `C=CCC1Oc2cccc(CO)c2-c2ccc3c(c21)C(C)=CC(C)(C)N3` (centres unmarked) [Example 329, 2,5-Dihydro-10-(2-hydroxymethyl)-5-(3-propenyl)-2,2,4-trimethyl-1H-[1]benzopyrano[3,4-f]quinoline], the Ki worked out at 192 nM.

Take `COc1cccc2c1-c1ccc3c(c1C(C1C=CCCCCC1)O2)C(C)=CC(C)(C)N3` (centres unmarked) [Example 143, 2,5-Dihydro-10-methoxy-5-(3-cyclooctenyl)-2,2,4-trimethyl-1H-[1]benzopyrano[3,4f]quinoline]: the Ki is 8100 nM. `C=CC(=C)CC1Oc2cccc(OC)c2-c2ccc3c(c21)C(C)=CC(C)(C)N3` (centres unmarked) [Example 172]: the Ki was found to be 9900 nM. As for `COc1cccc2c1-c1ccc3c(c1C(CCO)O2)C(C)=CC(C)(C)N3` (centres unmarked) [Example 199, 2,5-Dihydro-10-methoxy-5-(2-hydroxyethyl)-2,2,4-trimethyl-1H-[1]benzopyrano[3,4-f]quinoline], the Ki is at least 10000 nM. For the compound `COc1cccc2c1-c1ccc3c(c1C(C1C=CCCCC1)O2)C(C)=CC(C)(C)N3` (mixture of isomers) [Example 144], the Ki is at least 10000 nM. Still for that read-out and setting: the result for `COc1cccc2c1-c1ccc3c(c1C(c1cc(Cl)cc(Cl)c1)O2)C(C)=CC(C)(C)N3` (single isomer, unassigned; (-)) [Example 32, (−)-5-(3,5-Dichlorophenyl)-2,5-dihydro-10-methoxy-2,2,4-trimethyl-1H-[1]benzopyrano[3,4-f]quinoline] reads 1560 nM.

Take `C=C(Br)CC1Oc2cccc(OC)c2-c2ccc3c(c21)C(C)=CC(C)(C)N3` (centres unmarked) [Example 147, 2,5-Dihydro-10-methoxy-5-(2-bromo-3-propenyl)-2,2,4-trimethyl-1H-[1]benzopyrano[3,4-f]quinoline]: the Ki turned out to be 9300 nM. `COc1cccc2c1-c1ccc3c(c1C(c1cc(Cl)cc(Cl)c1)O2)C(C)=CC(C)(C)N3` (single isomer, unassigned; (+)) [Example 33, (+)-5-(3,5-Dichlorophenyl)-2,5-dihydro-10-methoxy-2,2,4-trimethyl-1H-[1]benzopyrano[3,4-f]quinoline]: the Ki was found to be 8320 nM. Regarding `COc1cccc2c1-c1ccc3c(c1C(CC=C1CCCCCC1)O2)C(C)=CC(C)(C)N3` (centres unmarked) [Example 189, 2,5-Dihydro-10-methoxy-5-(2-cycloheptylidenylethyl)-2,2,4-trimethyl-1H-[1]benzopyrano[3,4-f]quinoline], the Ki was 1700 nM. For `C=C(CC1Oc2cccc(OC)c2-c2ccc3c(c21)C(C)=CC(C)(C)N3)C(=O)OC` (centres unmarked) [Example 173, 2,5-Dihydro-10-methoxy-5-(2-carbomethoxy-3-propenyl)-2,2,4-trimethyl-1H-[1]benzopyrano[3,4-f]quinoline], the Ki was at least 10000 nM. Turning to `C=CCC1Oc2cccc(Cl)c2-c2ccc3c(c21)C(C)=CC(C)(C)N3` (centres unmarked) [Example 309, 10-Chloro-5-(3-propenyl)-2,2,4-trimethyl-2,5-dihydro-1H-[1]benzopyrano[3,4-f]quinoline], the Ki is 60.7 nM. As to `COc1c(O)ccc2c1-c1ccc3c(c1C(c1ccc(F)c(F)c1)O2)C(C)=CC(C)(C)N3` (centres unmarked) [Example 254, 2,5-Dihydro-9-hydroxy-10-methoxy-2,2,4-trimethyl-5-(3,4-difluorophenyl)-1H-[1]benzopyrano[3,4-f]quinoline], the Ki worked out at 1820 nM. Regarding `C=CCC1Oc2c(Br)cc(O)c(Cl)c2-c2ccc3c(c21)C(C)=CC(C)(C)N3` (centres unmarked) [Example 397, 2,5-Dihydro-7-bromo-9-hydroxy-10-chloro-2,2,4-trimethyl-5-allyl-1H-[1]benzopyrano[3,4-f]quinoline], the Ki worked out at 22.8 nM. With `COc1cccc2c1-c1ccc3c(c1[C@H]([C@H]1C=CCC1)O2)C(C)=CC(C)(C)N3` [Example 393, (−)(5S,3′R)2,5-Dihydro-10-methoxy-2,2,4-trimethyl-5-(cyclopenten-3-yl)-1H-[1]benzopyrano[3,4-f]quinoline], the Ki came out at 589 nM.
